In assay [1] the test system is MMP2 mRNA in HCT116 cells. In words: qPCR of MMP2 in HCT116. The settings on record: MC3353 0.1 and 1 μM 24 h; 5-AZA, DAC 5 days, also at 0.1 to 1 μM. In kind it is cell-based, human. From the text:
(§1) RNAs were extracted by ReliaPrep™ RNA Tissue Miniprep (Promega, Madison, WI, USA) and reverse transcribed with PrimeScript RT Master Mix (Takara, Kusatsu, Shiga, Japan). cDNAs were amplified by a qPCR reaction using GoTaq qPCR Master Mix (Promega) and analyzed with the oligonucleotide pairs specific for the target genes. Relative amounts, determined with the 2^(−ΔCt) method, were normalized with respect to the human housekeeping gene L32. The primers used are as follows: L32 (forward: 5′-[…]-3′, reverse: 5′-[…]-3′), E-cadherin (forward: 5′-[…]-3′, reverse: 5′-[…]-3′), and MMP2 (forward: 5′-[…]-3′, reverse: 5′-[…]-3′).
(§2) Prompted by these findings, we investigated the ability of MC3353 to modulate EMT pathway, using 5-AZA and DAC as reference drugs. […] The levels of mRNA transcripts of E-cadherin and matrix metalloproteinase-2 (MMP2) were determined. E-cadherin is involved in the maintenance of the epithelial identity and in the control of tumor invasiveness, whereas MMP2, through degradation of type IV collagen, the most abundant component of the basement membrane, controls an essential step for metastatic progression of most cancers as well as for induction of angiogenesis.
(Real-time PCR tracks product formation cycle by cycle.)

For assay [2], the system named is PDX-OS#1-C4. In words: Osteosarcoma cell growth inhibition (trypan blue count). In kind it is cell-based. The settings on record: Homo sapiens; 96 h of treatment; read-out: IC50 ± SD, cellular viability, PDX-OS#1-C4. From the text: (§3) The patient-derived human OS cell lines Saos-2, U-2OS, and MG-63 were obtained from ATCC (1992). The patient-derived OS cell lines IOR/OS9, IOR/OS20, and IOR/SARG were established and previously characterized at the Laboratory of Experimental Oncology of Rizzoli Orthopedic Institute. Cell lines were profiled for DNA copy number changes and DNA methylation status at approximately 27,000 CpG sites. The cell line PDX-OS#1-C4 was obtained from OS patient-derived xenograft (PDX) after 4 passages in the animal. All cell lines were tested for mycoplasma contamination (Mycoalert Mycoplasma Detection Kit, Lonza, Verviers, Belgium) before use and authenticated by short-tandem repeat polymerase chain reaction (STR PCR) analysis (last control December 2017) using PowerPlex ESX fast System kit (Promega, Madison, WI, USA). The following loci were verified: AMEL, D3S1358, TH01, D21S11, D18S51, D10S1248, D1S1656, D2S1338, D16S539, D22S1054, VWA, D8S1179, FGA, D2S441, D12S391, D19S433, and SE33. All cell lines were immediately amplified to constitute liquid nitrogen stocks and were never passaged for more than 1 month upon thawing. Cells were maintained in Iscove’s modified Dulbecco’s medium (IMDM) supplemented with 10% heat-inactivated FBS (Lonza, Verviers, Belgium), penicillin (20 U/mL), and streptomycin (100 μg/mL) (Sigma-Aldrich, Milan, Italy) in 37 °C humidified at 5% CO2.
(§4) To perform osteosarcoma cell growth inhibition experiments, 2 × 10^5 cells/well were plated, and MC3353 (0.1–30 μM) or DAC (0.5 μM) was added after 24 h. Cells were exposed for up to 96 h before being counted by Trypan blue vital cell count (Sigma-Aldrich, Milan, Italy). In parallel, the cells were treated with DMSO-containing medium as a control. The highest final concentration of DMSO in the medium was < 0.005%, and DMSO had no effect on cell growth.
(§5) IC50 values of compounds against cellular viability were determined by using nonlinear regression fitting curves with GraphPad Prism 8 or CalcuSyn software The t test used for statistical analyses was performed with GraphPad Prism 8. All the tests were one-tailed, and a p value < 0.05 was considered statistically significant.

The subject of assay [3] is MG63. The assay is described as above. In kind it is cell-based. The settings on record: Homo sapiens, MG-63; 96 h of treatment; read-out: IC50 ± SD, cellular viability, MG63.
Source text: as §3, §4, §5

Assay [4] concerns IOR/OS20. Described as above. In kind it is cell-based. The settings on record: Homo sapiens; 96 h of treatment; read-out: IC50 ± SD, cellular viability, IOR/OS20.
Source text: as §3, §4, §5

Assay [5] concerns IOR/OS9. Described as above. The class given is cell-based. Particulars: Homo sapiens; 96 h of treatment; read-out: IC50 ± SD, cellular viability, IOR/OS9.
Source text: as §3, §4, §5

Assay [6] relates to Saos-2. The description is as above. The class given is cell-based. The settings on record: Homo sapiens, 96 h of treatment, read-out: IC50 ± SD, cellular viability, Saos-2.
Source text: as §3, §4, §5

Assay [7] relates to IOR/SARG. Described as above. Particulars: Homo sapiens; 96 h of treatment; read-out: IC50 ± SD, cellular viability, IOR/SARG. In kind it is cell-based.
Source text: as §3, §4, §5

The subject of assay [8] is U-2OS. The assay is described as above. In kind it is cell-based. Particulars: Homo sapiens, U2OS; 96 h of treatment; read-out: IC50 ± SD, cellular viability, U-2OS.
Source text: as §3, §4, §5

For assay [9], the system named is HCT116 cells. Briefly: MTT proliferation assay HCT116. The settings on record: 24 and 48 h; MC3353 from 0.5 μM after 48 h; DAC at 10 μM. In kind it is cell-based, human. The protocol: The MTT [3-(4,5-dimethylthiazol-2-yl)-2,5-diphenyltetrazolium bromide] (Sigma-Aldrich, Milan, Italy) assay was used to determine the proliferation of HCT116 clone and DKO HCT116 cells after treatment with MC3353, 5-AZA, and DAC. 5 × 10^4 cells/well for both cell lines were plated in 24-well plate and treated, in duplicate, with compounds at several concentrations for 24 and 48 h of induction. After treatments, MTT solution was added for 3 h at 0.5 mg/mL, the purple formazan crystals were dissolved in DMSO (Sigma-Aldrich, Milan, Italy), and the absorbance was read at a wavelength of 570 nm with reader TECAN M-200.

Assay [10] concerns E-cadherin mRNA in PC-3 cells. In words: qPCR of E-cadherin in PC-3. The class given is cell-based, human. The settings on record: MC3353 24 h; 5-AZA, DAC 5 days, effect from 1 to 5 μM.
Source text: as §1, §2

As for `Nc1ncn([C@H]2C[C@H](O)[C@@H](CO)O2)c(=O)n1` [DAC, 5-aza-2′-deoxycytidine, reference compound], the “MMP2 mRNA expression, HCT116” value in [1] was “increased MMP2 level”. Further, the IC50 in assay [2] was 0.7 ± 0.6 µM; in [3], 0.2 ± 0.2 µM; in [4], 9.2 ± 2.2 µM; in [5], 5.7 ± 3.4 µM; in assay [6] it was 1 ± 0.9 µM; in [7], 5.4 ± 1 µM. In addition, in [8], the IC50 is 1.1 ± 0.9 µM. Moreover, the “effect on HCT116 proliferation (MTT)” value in [9] was “modest proliferation inhibition”. For the same compound, in assay [10], the “E-cadherin mRNA expression, PC-3” value is on record as “able to induce E-cadherin expression”.

As to `O=C(Nc1ccc(NC(=O)c2ccc(Nc3ccnc4ccccc34)cc2)cc1)OCc1ccccc1` [MC3353, Benzyl (4-(4-(quinolin-4-ylamino)benzamido)phenyl)carbamate], the “MMP2 mRNA expression, HCT116” value in [1] was “strongly downregulated”. Further, the IC50 worked out at 2 ± 0.1 µM in assay [2]; 2.4 ± 1.7 µM in assay [3]; 1.5 ± 0.1 µM in assay [4]; 2 ± 0.1 µM in [5]; 1.1 ± 0.3 µM in [6]; 1.5 ± 0.1 µM in [7]. Also, the IC50 in assay [8] is 1.4 ± 0.1 µM. Further, the “effect on HCT116 proliferation (MTT)” value in assay [9] is listed as “markedly decreased HCT116 proliferation”. Moreover, the “E-cadherin mRNA expression, PC-3” value in assay [10] is “this effect was observed only at 1 μM dose”.

For the origin of these results see article PMC6501426 (Clinical Epigenetics, 2019).
